The target of assay [1] is T1, human platelet GPIIb/IIIa (Homo sapiens, UniProt P05106+P08514).
T1 construct: the adsorbed GPIIb/IIIa was eluted with buffer A containing 2 mM GRGDSPK peptide; from tissue
The experiment in a line: Inhibitory activity against binding between platelet GPIIb/IIIa and fibrinogen (solid phase receptor binding). The text has this:
The inhibitory activity of the compounds of the present invention against binding between platelet GPIIb/IIIa and fibrinogen was examined by means of a human platelet GPIIb/IIIa solid phase receptor binding experiment system using a biotinylated human fibrinogen as a ligand.
At the outset, human platelet GPIIb/IIIa was purified according to a method established by Pytela, R et al. (Science, 231, 1559-1561 (1986)). Specifically, platelets collected from a normal human being was washed with TBS (0.15 M NaCl/50 mM Tris-HCl buffer (pH 7.5)) containing 0.2% (w/v) glucose. To the resultant pellet was added an equal amount of TBS containing 50 mM octylglucoside and 2 mM PMSF, followed by solubilization of membrane protein at 4°C for 20 min. The extract was centrifuged under conditions of 4°C, 3500 x g, and 20 min. To the supernatant were added 1 mM CaCl2 and 1 mM MgCl2. Thus, a sample for affinity chromatography was prepared. The solubilized protein solution was adsorbed on a GRGDSPK-Sepharose column which had been previously equilibrated with TBS containing 50 mM octylglucoside, 1 mM CaCl2, and 1 mM MgCl2 (buffer A). After washing with buffer A, the adsorbed GPIIb/IIIa was eluted with buffer A containing 2 mM GRGDSPK peptide.
The GRGDSPK-Sepharose was prepared by coupling of GRGDSPK peptide with CNBr-activated Sepharose 4B (manufactured by Pharmacia) according to the instruction manual of the manufacturer.
Next, a human platelet GPIIb/IIIa solid phase receptor binding test was carried out according to a method established by Mori et al. (Nippon Kessen Shiketsu Gakkaishi, 2(4), 323-329 (1991)).
Purified human platelet GPIIb/IIIa was adjusted to 2 µg/ml, and an 50 µl aliquot was adsorbed on each well of a 96 well microtiter plate at 4°C overnight. After washing with TBS containing 1 mM CaCl2 and 1 mM MgCl2, 100 µl of 1% bovine serum albumin was added to each of the wells, followed by blocking at 4°C overnight. The microtiter plate was then washed with TBS containing 0.01% Tween 20 (TBS-Tween 20), and 50 µl of biotinylated fibrinogen, which had been adjusted to 1 µg/ml, was added to each of the wells. Simultaneously, 50 µl of the test compound, which had been adjusted to appropriate concentrations, was added thereto, followed by a reaction at room temperature for 4 hr. After washing with TBS-Tween 20, 50 µl of peroxidase-labelled avidin, which had been diluted 4000 times with TBS, was added to each of the wells, followed by a reaction for 20 min. After washing with TBS-Tween 20, 50 µl of a solution of 1 mg/ml ABTS (2,2'-azino-bis(3-ethylbenzthiazoline-6-sulfonic acid) dissolved in a peroxidase substrate buffer, which had been diluted 10 times, was added to each of the wells, and a reaction was allowed to proceed for 5 min. Next, 50 µl of a 0.1 M citric acid buffer (pH 4.3) containing 0.05% NaN3 was added to each of the wells to terminate the reaction, and the absorbance was measured at 415 nm.
The binding inhibition was calculated by the following equation.
Binding inhibition (%) = [1 - (absorbance with test compound/absorbance without test compound)] x 100

The subject of assay [2] is human PRP (platelet rich plasma). In words: Inhibitory activity against platelet aggregation (ADP-induced, human PRP). Type of assay: cell-based. The conditions noted are these: aggregation inducer ADP 5 µM, preincubated 2 min. As for the experimental part: The inhibitory activity of the compound according to the present invention against platelet aggregation was examined with human PRP (platelet rich plasma).
Nine volumes of a blood sample was taken out of the vein of a normal human being with a syringe in which one volume of a 3.8% sodium citrate solution was charged. The blood sample was centrifuged at 170 x g at room temperature for 10 min. The supernatant thus obtained was isolated as PRP. The residual blood sample that PRP had been taken out was centrifuged at 2,700 x g for 15 min. The supernatant was then taken as platelet poor plasma (PPP).
A platelet aggregation test was carried out with an aggligometer (PAM-8C, manufactured by MEBANICKS Co. Ltd.). Compounds under test were dissolved in physiological saline, 0.1 N hydrochloric acid-physiological saline, or 1 N aqueous sodium hydroxide solution-physiological saline. The compound under test and PRP were preincubated for 2 min. An aggregation inducer ADP (CHRONO-PAR REAGENTS 384 ADP, CHRONO-LOG Corp.) was used after dilution with physiological saline to a final concentration of 5 µM.
The anti-platelet aggregation activity was determined as an inhibition rate to platelet aggregation effect of ADP in the absence of a compound under tent as follows. Anti-platelet aggregation activity (%) = [1 - (aggregation rate by ADP in the presence of test compound/aggregation rate by ADP in the absence of test compound)] x 100 [formula]

In the next assay the target is T2, human TXA2 synthetase (Homo sapiens, UniProt P24557).
T2 construct: purchased BIOMOL
T2 sequence (P24557 1-533): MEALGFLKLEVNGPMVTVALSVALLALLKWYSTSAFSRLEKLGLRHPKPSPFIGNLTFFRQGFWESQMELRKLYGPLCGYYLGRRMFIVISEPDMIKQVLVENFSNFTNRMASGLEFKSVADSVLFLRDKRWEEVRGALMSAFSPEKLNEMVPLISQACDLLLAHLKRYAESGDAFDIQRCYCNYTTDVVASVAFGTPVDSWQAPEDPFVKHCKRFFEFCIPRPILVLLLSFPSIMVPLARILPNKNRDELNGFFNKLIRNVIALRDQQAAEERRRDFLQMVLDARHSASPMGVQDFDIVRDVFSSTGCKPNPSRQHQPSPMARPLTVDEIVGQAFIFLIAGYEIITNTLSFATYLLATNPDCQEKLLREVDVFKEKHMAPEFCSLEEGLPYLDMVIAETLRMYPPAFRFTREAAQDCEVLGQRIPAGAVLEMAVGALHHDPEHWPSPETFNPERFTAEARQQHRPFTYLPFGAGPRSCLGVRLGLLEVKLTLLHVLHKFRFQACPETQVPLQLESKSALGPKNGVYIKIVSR
The experiment in a line: Inhibitory activity against thromboxane A2 (TXA2) synthetase. Type of assay: biochemical. As for the experimental part: The inhibitory activity of the compound of the present invention against TXA2 synthetase was assayed according to a method established by Ri et al. (Nihon Yakuri Gakkaishi, 106, 31 (1995)). A specimen solution (10 µl) was added to 100 µl of a 50 mM Tris-HCl buffer (containing 0.1 M NaCl, pH 7.5, 25°C) containing 10 µg of human TXA2 synthetase (BIOMOL), and incubation was then carried out at 25°C for 3 min. Next, 2 µl of 50 µg/ml PGH2 solution (Cayman Chemical) was added thereto to initiate an enzyme reaction, followed by the reaction at 25°C for 3 min. An aqueous ferrous chloride solution (25 mM, 10 µl) was added thereto to terminate the reaction. The reaction system was allowed to stand at room temperature for 15 min and then centrifuged under conditions of 4°C, 3000 x g, and 10 min. The supernatant was obtained as a sample for quantitative determination of TXB2. The amount of TXB2 was determined by means of Thromboxane B2 Enzyme Immunoassay Kit (Cayman Chemical). After a color reaction, the absorbance was measured at 415 nm with a microplate reader (MTP-32, manufactured by Corona Electric Co., Ltd.). The inhibition against TXA2 synthetase activity was calculated by the following equation, and 50% inhibition concentration was determined by regression straight line. Inhibition (%) = (1 - B/A) x 100 [formula] wherein • A represents the amount of TXB2 produced without the test compound; and • B represents the amount of TXB2 produced with the test compound.

The mark [3] stands for this setting: purified human platelet GPIIb/IIIa, biotinylated human fibrinogen as ligand, read-out: IC50.
Where [4] appears, read: human TXA2 synthetase, PGH2 substrate, 25°C, TXB2 determined by enzyme immunoassay, read-out: IC50.

Structures can show the parent of a compound that is named as a salt. Where two headings read alike, the source gives them in different places. Some results are limits rather than exact numbers.

T1 sequence (P08514 32-887 limits assumed): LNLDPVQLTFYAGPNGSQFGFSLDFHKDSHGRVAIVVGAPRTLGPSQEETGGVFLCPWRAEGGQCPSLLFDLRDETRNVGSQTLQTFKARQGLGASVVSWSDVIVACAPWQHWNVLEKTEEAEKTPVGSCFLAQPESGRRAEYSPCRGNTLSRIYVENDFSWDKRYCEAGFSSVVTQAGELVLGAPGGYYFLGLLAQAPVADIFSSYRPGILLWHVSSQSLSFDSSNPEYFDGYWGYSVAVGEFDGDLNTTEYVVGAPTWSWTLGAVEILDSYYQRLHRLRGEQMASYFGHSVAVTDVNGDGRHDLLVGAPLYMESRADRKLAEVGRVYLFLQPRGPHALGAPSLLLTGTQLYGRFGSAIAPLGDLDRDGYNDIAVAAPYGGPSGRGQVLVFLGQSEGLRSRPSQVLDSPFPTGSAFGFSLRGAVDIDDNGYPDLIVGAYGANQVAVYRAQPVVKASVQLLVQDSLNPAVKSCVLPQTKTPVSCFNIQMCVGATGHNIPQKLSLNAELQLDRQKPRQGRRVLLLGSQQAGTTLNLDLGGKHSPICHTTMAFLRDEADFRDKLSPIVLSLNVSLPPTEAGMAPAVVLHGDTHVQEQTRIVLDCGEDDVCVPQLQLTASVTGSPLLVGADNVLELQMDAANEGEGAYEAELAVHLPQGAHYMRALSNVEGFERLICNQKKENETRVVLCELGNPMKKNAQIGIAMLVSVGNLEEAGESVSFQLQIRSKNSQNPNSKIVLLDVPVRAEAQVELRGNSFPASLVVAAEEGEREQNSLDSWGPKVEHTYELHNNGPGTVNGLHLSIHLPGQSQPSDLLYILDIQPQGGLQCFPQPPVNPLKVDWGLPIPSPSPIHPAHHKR
T1 sequence (P08514 891-1039 partner limits assumed): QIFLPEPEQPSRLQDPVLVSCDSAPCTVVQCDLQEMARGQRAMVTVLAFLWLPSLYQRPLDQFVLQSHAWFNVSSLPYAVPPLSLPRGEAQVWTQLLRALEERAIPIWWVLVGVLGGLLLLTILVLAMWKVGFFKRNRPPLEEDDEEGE
T1 sequence (P05106 27-788): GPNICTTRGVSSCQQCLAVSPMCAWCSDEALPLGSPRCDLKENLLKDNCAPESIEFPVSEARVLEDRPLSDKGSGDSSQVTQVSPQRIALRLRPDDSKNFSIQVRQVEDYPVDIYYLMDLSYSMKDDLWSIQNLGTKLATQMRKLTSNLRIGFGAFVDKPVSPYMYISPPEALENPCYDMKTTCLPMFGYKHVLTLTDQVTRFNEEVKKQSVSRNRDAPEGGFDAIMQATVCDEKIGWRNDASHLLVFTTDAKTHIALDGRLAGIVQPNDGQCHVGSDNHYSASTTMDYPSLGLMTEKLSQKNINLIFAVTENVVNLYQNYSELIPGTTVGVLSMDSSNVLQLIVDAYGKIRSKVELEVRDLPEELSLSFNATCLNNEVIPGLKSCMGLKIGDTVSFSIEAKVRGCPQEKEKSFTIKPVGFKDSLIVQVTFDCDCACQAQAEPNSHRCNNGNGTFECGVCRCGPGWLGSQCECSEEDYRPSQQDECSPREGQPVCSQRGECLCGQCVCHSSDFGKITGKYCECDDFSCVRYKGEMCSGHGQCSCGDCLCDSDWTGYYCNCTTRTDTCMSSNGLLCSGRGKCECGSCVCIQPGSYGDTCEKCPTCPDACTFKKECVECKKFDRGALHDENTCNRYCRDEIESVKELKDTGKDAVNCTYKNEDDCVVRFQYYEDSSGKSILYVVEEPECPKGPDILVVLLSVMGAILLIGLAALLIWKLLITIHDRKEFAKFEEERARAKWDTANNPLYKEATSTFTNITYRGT

Take `CN(CC(Oc1cccnc1)c1ccc(OCC(=O)O)c(OCC(=O)O)c1)C(=O)c1cc2c(s1)CCNC2` (stereo not drawn) [Example 4, [[4-[2-[[(4,5,6,7-Tetrahydrothieno[3,2-c]pyridin-2-yl)carbonyl]-N-methylamino]-1-(pyridin-3-yl)oxyethyl]-o-phenylene]dioxy]diacetic acid trifluoroacetate]: the results for the 50% inhibitory concentration (IC50) (in assay [1] (setting [3]); in assay [2] (Platelet); at human TXA2 synthetase (setting [4])) were 0.0048 µM, 0.14 µM and 0.87 µM, respectively.
Regarding `O=C(O)COc1ccc(C(=O)CNC(=O)c2cc3c(s2)CCNC3)cc1COc1cccnc1` [Example 2, [2-(Pyridin-3-yl)oxymethyl-4-[[[4,5,6,7-tetrahydrothieno[3,2-c]pyridin-2-yl]carbonylamino]acetyl]phenyl]oxyacetic acid trifluoroacetate], the concentration for half-maximal inhibition (IC50) is 0.27 µM in assay [1] (setting [3]), 9.3 µM in assay [2] (Platelet) and greater than 10 µM at human TXA2 synthetase (setting [4]).
Consider `O=C(O)COc1ccc(C(CNC(=O)c2cc3c(s2)CCNC3)Oc2cccnc2)cc1` (stereo not drawn) [Example 5, [4-[2-[[(4,5,6,7-Tetrahydrothieno[3,2-c]pyridin-2-yl)carbonyl]amino]-1-(pyridin-3-yl)oxyethyl]phenyl]oxyacetic acid trifluoroacetate], for which the IC50 in assay [1] (setting [3]) was 0.01 µM; in assay [2] (Platelet), 0.28 µM; at human TXA2 synthetase (setting [4]), 0.16 µM.
On to `O=C(O)COc1ccc(C(=O)CNC(=O)c2cc3c(s2)CCNC3)cc1Cn1ccnc1` [Example 1, [2-(Imidazol-1-yl)methyl-4-[[[4,5,6,7-tetrahydrothieno[3,2-c]pyridin-2-yl]carbonylamino]acetyl]phenyl]oxyacetic acid trifluoroacetate (TFA)], for which the 50% inhibitory concentration (IC50) in assay [1] (setting [3]) is 0.27 µM; in assay [2] (Platelet), 4.4 µM; on human TXA2 synthetase (setting [4]), 0.36 µM.
With `O=C(O)COc1ccc(C(=O)CN2C(=O)CN(C3CCNCC3)CC2=O)cc1Cn1ccnc1` [Example 8, [2-(1-Imidazolylmethyl)-4-[[4-(piperidin-4-yl)-2,6-dioxopiperazin-1-yl]acetyl]phenyl]oxyacetic acid trifluoroacetate], the IC50 in assay [1] (purified human platelet GPIIb/IIIa, biotinylated human fibrinogen as ligand) came out at 0.19 µM; in assay [2] (Platelet) it was 0.031 µM; against human TXA2 synthetase (human TXA2 synthetase, PGH2 substrate, 25°C, TXB2 determined by enzyme immunoassay) it was 0.69 µM.
With `O=C(O)COc1ccc(C(CNC(=O)c2cc3c(s2)CCNC3)Oc2cccnc2)cc1OCC(=O)O` (stereo not drawn) [Example 3, [[4-[2-[[4,5,6,7-Tetrahydrothieno[3,2-c]pyridin-2-yl]carbonyl]amino-1-[(pyridin-3-yl)oxy]ethyl]-o-phenylene]dioxy]diacetic acid trifluoroacetate], the IC50 was 0.0014 µM in assay [1] (setting [3]), 0.36 µM in assay [2] (Platelet) and 0.55 µM at human TXA2 synthetase (setting [4]).
Turning to `O=C(O)COc1ccc(C(=O)CN2CCN(C3CCNCC3)CC2=O)cc1Cn1ccnc1` [Example 6, [2-(1-Imidazolylmethyl)-4-[[4-(piperidin-4-yl)-2-oxopiperazin-1-yl]acetyl]phenyl]oxyacetic acid trifluoroacetate], the results for the IC50 (in assay [1]; in assay [2] (Platelet); against human TXA2 synthetase) were 0.012 µM, 0.071 µM and 0.57 µM, respectively.
In the case of “[4-[[4-(Piperidin-4-yl)-2-oxopiperazin-1-yl]acetyl]-2-(3-pyridyloxymethyl)phenyl]oxyacetic acid trifluoroacetate [Example 7]”, the IC50 in assay [1] (setting [3]) was 0.023 µM; in assay [2] it was 0.093 µM; on human TXA2 synthetase (setting [4]), greater than 10 µM.

As a reminder, the IC50 is the concentration that gives 50% inhibition.
